From US20110160228A1, “DIHYDRO-ISO-CA-4 AND ANALOGUES: POTENT CYTOTOXICS, INHIBITORS OF TUBULIN POLYMERIZATION” (CENTRE NATIONAL DE LA RECHERCHE SCIENRIFIQUE (CNRS), priority 2008, published 2011)
Like-named read-outs stand apart in the source and are kept apart here.

Tests used:
tubulin = biological target: T1, tubulin (Sus scrofa, UniProt P02550+P02554); test: Inhibition of tubulin polymerization followed by turbidimetry; type: biochemical, porcine; conditions: for Inhibiting activity of tubulin polymerisation, in words: compared with CA-4 or between the enantiomers; for IC50: tubulin from porcine brain, turbidimetry at 350 nm
T1 construct: from porcine brain in which it forms 20 to 25% of soluble proteins; from tissue; host or cells: porcine brain
Experimental: These tests were conducted on tubulin purified using the Shelanski method (Shelanski, M. C.; Gaskin, F.; Cantor, C. R. Proc. Natl. Acad. Sci. USA, 1973, 70, 765-768) from porcine brain in which it forms 20 to 25% of soluble proteins. The purification method is based on temperature-dependent assembly-disassembly cycles. Polymerisation of tubulin was followed by turbidimetry using the Gaskin method (Gaskin, F.; Cantor, C. R.; Shelanski, M. L.; J. Bio. Mol., 1974, 89, 737) at a wavelength of 350 nm. The different samples were dissolved in DMSO and incubated 10 minutes at 37° C. then 5 minutes at 0° C.
The compound CA-4 and DMSO were used as reference.

[1] = test system: mouse P-388 leukemia cells; conditions: cited from earlier work
HCT-15 cells = conditions: read-out: IC50, cytotoxic effect; cited from earlier work
[2] = cited from earlier work
[3] = test system: mouse colon adenocarcinoma 26; conditions: cited from earlier work
HCT116 = test: In vitro cytotoxicity, cell viability with CellTiter-Blue; type: cell-based; conditions: Homo sapiens, HCT-116, 72 h
Experimental: (§1) The biological activity of the compounds of the invention was studied in vitro on 7 human cancer cell lines of different tissular origin (HCT116: coloreactal carcinoma; K562: chronic myeloid leukaemia; B16-F10: melanoma; U87: glioblastoma; H1299: non-small cell lung cancer and MDA-MB 231 and MDA-MB 435: breast cancer). The cells chosen for this study were incubated at 37° C. in the presence of one of the compounds added to the culture medium at different concentrations. All the experiments conducted allowed determination of the extent of toxicity of the tested compound, effect thereof on the cell cycle process and capacity thereof to induce cell death by apoptosis.
(§2) The cancer cell lines were obtained from the American Type Culture Collection (Rockville, Md., USA) and were cultured following the supplier's recommendations.
The cells H1299, U87, MDA-MB231, MDA-MB435 and B16F10 were cultured in Dulbecco Minimal Essential Medium (DMEM) containing 4.5 g/l glucose, supplemented with 10% foetal calf serum and 1% glutamine. The K562 and HCT116 cells were cultured in RPMI 1640 medium containing 10% foetal calf serum and 1% glutamine. All the cell lines were held in culture at 37° C. in a humid atmosphere containing 5% CO2. Cell viability was evaluated using the reagent CellTiter-Blue™ (Promega, Wis., USA) paying heed to the manufacturer's instructions. The cells were seeded in 96-well culture plates to the proportion of 5000 cells per well in 50 μl culture medium. […] All the compounds were tested in triplicate for each defined concentration, and each experiment was repeated 3 times. After 72 hours of incubation, 20 μl resazurin were added to each well. After 2 hours of incubation, the emitted fluorescence was measured at 590 nm after excitation at 560 nm using a fluorescence reader of Victor type (Perkin-Elmer, USA).

MDA-MB 231 = test: as above; type: cell-based; conditions: Homo sapiens, read-out: IC50 for different cell lines, M231
Experimental: as §1, §2
The cells H1299, U87, MDA-MB231, MDA-MB435 and B16F10 were cultured in Dulbecco Minimal Essential Medium (DMEM) containing 4.5 g/l glucose, supplemented with 10% foetal calf serum and 1% glutamine. […] Cell viability was evaluated using the reagent CellTiter-Blue™ (Promega, Wis., USA) paying heed to the manufacturer's instructions. […] After 2 hours of incubation, the emitted fluorescence was measured at 590 nm after excitation at 560 nm using a fluorescence reader of Victor type (Perkin-Elmer, USA).

EAhy926 = test: Formation of vascular tubes on Matrigel (anti-vascular activity); type: cell-based, human; conditions: treatment time of 3 hours at 0.5 μM or 1 μM
Experimental: The Matrigel™ is deposited in 96-well culture plates to the proportion of 70 μl/well and left to incubate at 37° C. for 45 minutes to allow polymerization thereof. […] After 3 hours of incubation at 37° C., the cells were observed and photographed using an optical microscope of TE2000 type (Nikon, France) equipped with a camera (FIG. 3).
In parallel, 15,000 EAhy926 cells in suspension in 150 μl of culture medium were seeded in each of the wells containing Matrigel™. […] The effect of the product was observed and photographed after 3 hours of incubation using an optical microscope (FIG. 4).

[4] = 72 hours of incubation, read-out: IC50 for different cell lines, HCT116

T1 sequence (P02554 whole entry): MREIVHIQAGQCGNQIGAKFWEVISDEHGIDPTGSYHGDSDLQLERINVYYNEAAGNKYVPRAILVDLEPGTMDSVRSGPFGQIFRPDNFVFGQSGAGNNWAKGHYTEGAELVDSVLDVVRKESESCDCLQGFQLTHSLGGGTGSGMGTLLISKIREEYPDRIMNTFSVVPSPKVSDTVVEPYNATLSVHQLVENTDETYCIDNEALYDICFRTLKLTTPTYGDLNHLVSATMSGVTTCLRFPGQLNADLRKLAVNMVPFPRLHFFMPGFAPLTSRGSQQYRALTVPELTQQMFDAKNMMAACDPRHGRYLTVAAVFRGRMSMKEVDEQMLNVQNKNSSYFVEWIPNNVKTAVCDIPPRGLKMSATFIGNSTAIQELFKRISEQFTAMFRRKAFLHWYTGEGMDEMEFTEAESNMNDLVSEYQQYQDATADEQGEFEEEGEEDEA
T1 sequence (P02550 whole entry): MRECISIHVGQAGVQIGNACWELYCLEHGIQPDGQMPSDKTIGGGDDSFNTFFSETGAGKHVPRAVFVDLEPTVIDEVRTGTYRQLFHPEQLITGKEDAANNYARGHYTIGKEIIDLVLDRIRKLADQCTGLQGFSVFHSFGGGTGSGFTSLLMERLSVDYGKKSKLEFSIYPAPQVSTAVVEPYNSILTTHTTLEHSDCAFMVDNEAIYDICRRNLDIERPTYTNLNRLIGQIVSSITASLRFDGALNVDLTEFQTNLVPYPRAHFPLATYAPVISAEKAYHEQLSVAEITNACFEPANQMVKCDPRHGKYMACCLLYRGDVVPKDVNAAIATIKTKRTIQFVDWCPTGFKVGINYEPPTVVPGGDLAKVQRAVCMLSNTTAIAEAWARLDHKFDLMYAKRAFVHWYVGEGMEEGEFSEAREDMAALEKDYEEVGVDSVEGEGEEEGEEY

COc1ccc(C(C)c2cc(OC)c(OC)c(OC)c2)cc1O (single isomer, unassigned) [Compound I-1a]
Inhibiting activity of tubulin polymerisation, in words (tubulin): the same capacity to inhibit tubulin polymerisation
IC50 (tubulin): 5000 to 6000 nM

COc1ccc(C(C)c2cc(OC)c(OC)c(OC)c2)cc1O (single isomer, unassigned) [Compound I-1b]
Inhibiting activity of tubulin polymerisation, in words (tubulin): the same capacity to inhibit tubulin polymerisation
IC50 (tubulin): 6700 to 8000 nM

COc1ccc(C=Cc2cc(OC)c(OC)c(OC)c2)cc1O (single isomer, unassigned) [E isomer of CA-4]
Cytotoxic activity, times lower than the natural Z isomer [1]: approximately 60 times

COc1ccc(/C=C\c2cc(OC)c(OC)c(OC)c2)cc1O [CA-4, combretastatin A-4]
IC50 (HCT-15 cells): 0.9 nM
Solubility in water [2]: low solubility in water
Antitumor activity in vivo [3]: no antitumor activity is observed

COc1ccc(C(C)c2cc(OC)c(OC)c(OC)c2)cc1O (centres unmarked) [Compound I-1]
IC50 (tubulin): 3200 nM

COc1ccc(C(C)c2cc(OC)c(OC)c(OC)c2)cc1F (centres unmarked) [Compound I-9]
IC50 (HCT116; [4]): 85 nM
IC50 (tubulin): 6000 nM

COc1ccc(C(C)c2cc(OC)c(OC)c(OC)c2)cc1OC(=O)CN(C)C (centres unmarked) [Compound I-14]
IC50 (HCT116; 72 hours of incubation, in DMSO, read-out: IC50 for different cell lines, HCT116): 50 nM
IC50 (HCT116; 72 hours of incubation, in water, read-out: IC50 for different cell lines, HCT116): 90 nM
IC50 (MDA-MB 231; MDA-MB-231, 72 hours of incubation, in DMSO): 50 nM

COc1ccc(C(C)c2cc(OC)c(OC)c(OC)c2)cc1OP(=O)(O)O (centres unmarked) [Compound I-16]
IC50 (HCT116; read-out: IC50 for different cell lines, HCT116, 72 hours of incubation, in DMSO): 90 nM
IC50 (HCT116; read-out: IC50 for different cell lines, HCT116, 72 hours of incubation, in water): 100 nM
Number of vascular tubes (EAhy926): major decrease in the number of vascular tubes
IC50 (MDA-MB 231; MDA-MB-231, 72 h): 50 nM

COc1cc(OC)cc(C(C)c2ccc(OC)c(O)c2)c1 (centres unmarked) [Compound I-18]
IC50 (tubulin): 11000 nM

COc1ccc(C(CC#N)c2cc(OC)c(OC)c(OC)c2)cc1O (centres unmarked) [Compound I-19]
IC50 (HCT116; [4]): 80 nM

COc1ccc(C(c2cc(OC)c(OC)c(OC)c2)C(F)F)cc1O (centres unmarked) [Compound I-20]
IC50 (HCT116; [4]): 30 nM

COc1ccc(C(C)c2cc(OC)c(OC)c(OC)c2)cc1N (centres unmarked) [Compound I-21]
IC50 (HCT116; read-out: IC50 for different cell lines, HCT116, 72 hours of incubation): 60 nM

COc1cc(OC)cc(C(C)c2ccc(OC)c(N)c2)c1 (centres unmarked) [Compound I-38]
IC50 (tubulin): 11000 nM
